Measured values taken from article PMC5068113 (Pharmacognosy Magazine, 2016).
Converted amounts (≈) assume the structure as drawn.

Key:
Experiment in all cases: CYP inhibition by substrate-cocktail method in HLM
Type in all cases: in vitro ADME
human CYP2C8 = target: T1, human CYP2C8 (Homo sapiens, UniProt P10632)
T1 sequence (P10632 1-490): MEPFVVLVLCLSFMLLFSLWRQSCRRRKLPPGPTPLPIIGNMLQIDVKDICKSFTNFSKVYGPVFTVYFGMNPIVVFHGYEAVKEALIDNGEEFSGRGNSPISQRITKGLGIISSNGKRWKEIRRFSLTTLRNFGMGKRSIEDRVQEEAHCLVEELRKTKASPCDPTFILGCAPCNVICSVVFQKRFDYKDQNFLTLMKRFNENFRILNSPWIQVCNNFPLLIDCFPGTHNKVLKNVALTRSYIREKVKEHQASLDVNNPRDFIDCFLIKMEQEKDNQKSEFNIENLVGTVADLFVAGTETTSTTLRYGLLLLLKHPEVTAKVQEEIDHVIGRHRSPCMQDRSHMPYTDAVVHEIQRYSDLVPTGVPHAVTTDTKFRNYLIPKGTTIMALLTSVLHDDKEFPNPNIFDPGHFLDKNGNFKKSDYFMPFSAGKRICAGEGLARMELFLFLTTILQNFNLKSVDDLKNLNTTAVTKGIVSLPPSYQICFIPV

CYP1A2 = target: T2, CYP1A2 (Homo sapiens, UniProt P05177); conditions: human liver microsomes, pH 7.4, probe tacrine
T2 sequence (P05177 1-516): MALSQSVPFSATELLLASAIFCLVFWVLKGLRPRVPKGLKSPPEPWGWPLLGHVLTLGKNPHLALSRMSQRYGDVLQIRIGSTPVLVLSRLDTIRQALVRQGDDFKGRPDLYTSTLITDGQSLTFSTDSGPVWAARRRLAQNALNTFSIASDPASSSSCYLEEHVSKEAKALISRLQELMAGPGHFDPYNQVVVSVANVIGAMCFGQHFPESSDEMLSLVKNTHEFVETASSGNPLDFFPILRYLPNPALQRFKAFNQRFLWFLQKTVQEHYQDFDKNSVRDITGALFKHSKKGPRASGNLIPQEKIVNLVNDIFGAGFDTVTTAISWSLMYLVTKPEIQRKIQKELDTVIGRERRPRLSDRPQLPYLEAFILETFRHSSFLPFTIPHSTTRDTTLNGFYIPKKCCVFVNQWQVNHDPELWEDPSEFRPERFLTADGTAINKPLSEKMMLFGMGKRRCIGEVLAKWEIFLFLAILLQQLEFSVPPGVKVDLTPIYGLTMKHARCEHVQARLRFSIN

CYP2C9 = CYP2C9 (Homo sapiens, UniProt P11712); conditions: human liver microsomes, pH 7.4, probe diclofenac
CYP2C9, sequence (P11712 whole entry): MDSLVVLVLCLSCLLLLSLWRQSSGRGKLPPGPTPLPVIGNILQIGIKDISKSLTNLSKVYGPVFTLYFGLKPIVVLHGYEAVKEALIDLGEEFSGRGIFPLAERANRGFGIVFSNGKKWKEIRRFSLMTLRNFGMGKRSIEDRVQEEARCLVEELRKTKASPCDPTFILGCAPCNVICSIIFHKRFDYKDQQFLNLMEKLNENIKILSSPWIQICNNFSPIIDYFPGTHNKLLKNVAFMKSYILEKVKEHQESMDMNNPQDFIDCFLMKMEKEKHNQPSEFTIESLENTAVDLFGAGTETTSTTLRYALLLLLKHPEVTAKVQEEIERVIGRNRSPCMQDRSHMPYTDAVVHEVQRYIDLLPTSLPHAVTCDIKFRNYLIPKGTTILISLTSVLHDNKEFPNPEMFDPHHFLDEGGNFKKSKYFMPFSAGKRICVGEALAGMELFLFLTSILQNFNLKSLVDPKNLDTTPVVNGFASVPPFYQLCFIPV

CYP2D6 = CYP2D6 (Homo sapiens, UniProt P10635); conditions: human liver microsomes, pH 7.4, probe dextromethorphan
CYP2D6, sequence (P10635 whole entry): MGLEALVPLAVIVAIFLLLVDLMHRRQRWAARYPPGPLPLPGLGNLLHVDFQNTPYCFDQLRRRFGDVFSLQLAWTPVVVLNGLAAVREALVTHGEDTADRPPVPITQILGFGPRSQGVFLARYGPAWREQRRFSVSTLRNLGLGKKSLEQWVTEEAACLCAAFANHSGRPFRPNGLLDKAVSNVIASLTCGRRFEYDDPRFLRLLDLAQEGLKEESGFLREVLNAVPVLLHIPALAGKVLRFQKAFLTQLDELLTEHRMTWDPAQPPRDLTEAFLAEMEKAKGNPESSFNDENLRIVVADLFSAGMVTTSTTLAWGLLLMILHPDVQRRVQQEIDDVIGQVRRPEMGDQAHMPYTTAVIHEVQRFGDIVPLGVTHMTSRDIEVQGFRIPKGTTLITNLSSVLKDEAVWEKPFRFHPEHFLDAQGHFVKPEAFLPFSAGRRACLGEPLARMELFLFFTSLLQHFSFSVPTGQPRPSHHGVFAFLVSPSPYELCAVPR

SMILES	effect on CYP2C8 activity (in words) (human CYP2C8)	IC50 at 8 min (CYP1A2)	IC50 at 8 min (CYP2C9)	IC50 at 8 min (CYP2D6)
CC1(CO)C(O[C@@H]2O[C@H](C(=O)O)[C@@H](O)[C@H](O)[C@H]2O)CC[C@@]2(C)C1CC[C@]1(C)C2CC=C2[C@H]3CC(C)(C)[C@H](O)[C@@H](O)[C@]3(CO)[C@H](O)C[C@]21C (stereo partly shown) [DGA, deacylgymnemic acid]	unaffected	–	–	–
Clc1ccc(COC(Cn2ccnc2)c2ccc(Cl)cc2Cl)c(Cl)c1 (stereo not shown) [MCZN, miconazole]	–	0.89 µg/mL (≈ 2.14 µM)	0.19 µg/mL (≈ 0.457 µM)	0.56 µg/mL (≈ 1.35 µM)
